Test results: paper PMC7151078, “A Novel NMDA Receptor Antagonist Protects against Cognitive Decline Presented by Senescent Mice” (Pharmaceutics, 2020)
pIC50: −log10 of the molar value.

Assays:
CYP3A4 = target: T1, CYP3A4 (Homo sapiens, UniProt P08684); experiment: Cytochrome inhibition, fluorescent detection (7-BFC and DBF substrates); format: in vitro ADME
T1 construct: host or cells: insect cell microsomes
Experimental: (§1) To screen the inhibition potential of the compounds, recombinant human cytochrome P450 enzymes (CYP1A2, CYP2C9, CYP2C19, CYP2D6, and CYP3A4) and probe substrates were used with the fluorescent detection method. Incubations were conducted in 200-µL volume 96 well microtiter plates (COSTAR 3915). Addition of cofactor-buffer mixture (KH2PO4 buffer, 1.3 mM NADP+, 3.3 mM MgCl2, 3.3 mM Glucose-6-phosphate and 0.4 U/mL Glucose-6-phosphate Dehydrogenase), supersomes control, standard inhibitors (Furafyline, Tranylzypromine, Ketoconazole, Sulfaphenazole, and Quinidine; from Sigma Aldrich), and test compounds to plates were carried out using a a liquid handling station (Zephyr Caliper). The plate was then pre-incubated at 37 °C for 5 min, and the reaction initiated by the addition of pre-warmed enzyme/substrate (E/S) mix. […] Fluorescence per well was measured using a fluorescence plate reader (Tecan M1000 pro), and the percentage of inhibition was calculated.

CYP1A2 = target: T2, CYP1A2 (Homo sapiens, UniProt P05177); experiment: Cytochrome inhibition, fluorescent detection (CEC substrate); format: in vitro ADME; conditions: recombinant human CYP1A2
T2 construct: host or cells: insect cell microsomes
T2 sequence (P05177 1-516): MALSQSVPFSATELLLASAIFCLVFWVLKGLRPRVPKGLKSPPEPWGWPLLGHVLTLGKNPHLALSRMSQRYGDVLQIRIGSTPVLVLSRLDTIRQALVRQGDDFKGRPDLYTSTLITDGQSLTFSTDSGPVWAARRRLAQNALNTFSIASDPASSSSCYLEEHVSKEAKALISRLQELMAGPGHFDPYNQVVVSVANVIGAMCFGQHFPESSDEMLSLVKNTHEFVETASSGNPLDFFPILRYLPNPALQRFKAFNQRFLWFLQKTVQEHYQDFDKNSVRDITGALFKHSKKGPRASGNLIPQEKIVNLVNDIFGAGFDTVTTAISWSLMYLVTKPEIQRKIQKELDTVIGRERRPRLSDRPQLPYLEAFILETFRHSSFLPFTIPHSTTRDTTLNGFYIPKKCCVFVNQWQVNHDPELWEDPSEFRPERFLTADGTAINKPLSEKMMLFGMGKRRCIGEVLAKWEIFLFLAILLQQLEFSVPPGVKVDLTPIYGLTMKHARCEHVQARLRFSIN
Experimental: as §1

CYP2C19 = target: T3, CYP2C19 (Homo sapiens, UniProt P33261); experiment: as above; format: in vitro ADME; conditions: recombinant human CYP2C19
T3 construct: host or cells: insect cell microsomes
Experimental: as §1

CYP2C9 = target: T4, CYP2C9 (Homo sapiens, UniProt P11712); experiment: Cytochrome inhibition, fluorescent detection (7-MFC substrate); format: in vitro ADME; conditions: recombinant human CYP2C9
T4 construct: host or cells: insect cell microsomes
Experimental: as §1

SAMR1 and SAMP8 mice = experiment: proBDNF and mBDNF protein levels in the hippocampus (ELISA); format: in vivo, mouse
Experimental: Male SAMR1 and SAMP8 mice (n = 41) with 20-weeks-old were used to carry out cognitive and molecular analysis. The animals were randomly divided into four groups: SAMR1 control (SR1 Ct) group (n = 11), SAMP8 control (SP8 Ct) group (n = 8), SAMR1 treated with RL-208 (SR1 RL-208 (5 mg/Kg)) group (n = 10) and SAMP8 treated with RL-208 (SP8 RL-208 (5 mg/Kg)) group (n = 12). Animals had free access to food and water, under standard temperature conditions (22±2 °C) and 12h:12h light-dark cycles (300 lux/0 lux). RL-208, (3,4,8,9-tetramethyltetracyclo[4.4.0.0^3,9.0^4,8]dec-1-yl)-methylamine hydrochloride, (5 mg/kg/day) was administered through drinking water for four weeks before starting the cognitive test. RL-208 was administered up to euthanasia (Figure 1A). Water consumption was controlled each week for each cage and strain. Afterwards, RL-208 concentration was adjusted accordingly to reach the optimal dose for each cage. Three days after the behavioural and cognitive tests, mice were euthanized by cervical dislocation. Brains were immediately removed from the skull. The hippocampus and cortex were then isolated and frozen in powdered dry ice. They were maintained at −80 °C for further use. Tissue samples were homogenized in lysis buffer containing phosphatase and protease inhibitors (Cocktail II, Sigma). Total protein levels were obtained, and protein concentration was determined by the method of Bradford. The hippocampal determination of pro-Brain-derived neurotrophic factor (proBDNF) and mature brain-derived neurotrophic factor (mBDNF) protein levels was performed using the enzyme-linked immunosorbent assay (ELISA) kit (Biosensis) according to the manufacturer’s instructions.

[1] = Microsomal stability in rat microsomes; format: in vitro ADME; conditions: 37 °C, 0-60 min
Experimental: The human, rat, and mice microsomes employed were purchased from Tebu-Xenotech. The compound was incubated at 37 °C with the microsomes in a 50 mM phosphate buffer (pH = 7.4) containing 30 mM MgCl2, 10 mM NADP, 100 mM glucose-6-phosphate and 20 U/mL glucose-6-phosphate-dehydrogenase. Samples (75 µL) were taken from each well at 0, 10, 20, 40, and 60 min and transferred to a plate containing 4 °C 75 µL acetonitrile. Then, 30 µL of 0.5% formic acid in water was added to improve the chromatographic conditions. The plate was centrifuged (46,000× g, 30 min) and supernatants were taken and analyzed in a UPLC-MS/MS (Xevo-TQD, Waters) by employing a BEH C18 column and an isocratic gradient of 0.1% formic acid in water: 0.1% formic acid acetonitrile (60:40) for 5 minutes and a flow of 0.25 mL/min. The metabolic stability of the compounds was calculated from the logarithm of remaining compounds at each time point studied.

NMDAR = system: NMDAR; parameters: method as in PMID 29767953; conditions: early preclinical in vitro experiments; cited from earlier work
CYP2D6 = target: T5, CYP2D6 (Homo sapiens, UniProt P10635); experiment: Cytochrome inhibition, fluorescent detection (AMMC substrate); format: in vitro ADME; conditions: recombinant human CYP2D6
T5 construct: host or cells: insect cell microsomes
Experimental: as §1

T1 sequence (P08684 whole entry): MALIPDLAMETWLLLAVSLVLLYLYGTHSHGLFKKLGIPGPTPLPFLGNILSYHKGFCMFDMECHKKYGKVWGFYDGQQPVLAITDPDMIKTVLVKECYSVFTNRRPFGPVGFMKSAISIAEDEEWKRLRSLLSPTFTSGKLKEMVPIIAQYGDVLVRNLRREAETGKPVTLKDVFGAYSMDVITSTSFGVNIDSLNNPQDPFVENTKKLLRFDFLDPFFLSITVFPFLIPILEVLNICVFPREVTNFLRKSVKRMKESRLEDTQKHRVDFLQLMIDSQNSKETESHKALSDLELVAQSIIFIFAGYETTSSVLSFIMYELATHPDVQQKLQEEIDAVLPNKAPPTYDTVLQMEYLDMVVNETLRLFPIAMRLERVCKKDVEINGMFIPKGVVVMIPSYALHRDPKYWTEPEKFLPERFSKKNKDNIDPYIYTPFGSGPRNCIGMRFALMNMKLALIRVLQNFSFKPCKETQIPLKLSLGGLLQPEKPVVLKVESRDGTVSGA
T5 sequence (P10635 whole entry): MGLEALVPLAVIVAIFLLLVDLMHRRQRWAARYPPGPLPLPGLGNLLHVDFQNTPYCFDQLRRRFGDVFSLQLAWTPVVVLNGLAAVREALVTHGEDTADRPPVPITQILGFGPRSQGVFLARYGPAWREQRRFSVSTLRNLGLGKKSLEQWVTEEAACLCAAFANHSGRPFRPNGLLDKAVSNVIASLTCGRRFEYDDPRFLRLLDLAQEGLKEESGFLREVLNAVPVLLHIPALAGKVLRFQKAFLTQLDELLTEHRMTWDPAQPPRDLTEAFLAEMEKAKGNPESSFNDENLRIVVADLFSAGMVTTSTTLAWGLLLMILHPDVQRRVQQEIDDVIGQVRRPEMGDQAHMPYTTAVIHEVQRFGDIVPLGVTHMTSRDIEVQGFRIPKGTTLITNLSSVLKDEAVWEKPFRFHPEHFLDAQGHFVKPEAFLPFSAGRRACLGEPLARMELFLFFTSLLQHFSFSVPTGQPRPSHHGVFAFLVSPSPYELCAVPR
T3 sequence (P33261 whole entry): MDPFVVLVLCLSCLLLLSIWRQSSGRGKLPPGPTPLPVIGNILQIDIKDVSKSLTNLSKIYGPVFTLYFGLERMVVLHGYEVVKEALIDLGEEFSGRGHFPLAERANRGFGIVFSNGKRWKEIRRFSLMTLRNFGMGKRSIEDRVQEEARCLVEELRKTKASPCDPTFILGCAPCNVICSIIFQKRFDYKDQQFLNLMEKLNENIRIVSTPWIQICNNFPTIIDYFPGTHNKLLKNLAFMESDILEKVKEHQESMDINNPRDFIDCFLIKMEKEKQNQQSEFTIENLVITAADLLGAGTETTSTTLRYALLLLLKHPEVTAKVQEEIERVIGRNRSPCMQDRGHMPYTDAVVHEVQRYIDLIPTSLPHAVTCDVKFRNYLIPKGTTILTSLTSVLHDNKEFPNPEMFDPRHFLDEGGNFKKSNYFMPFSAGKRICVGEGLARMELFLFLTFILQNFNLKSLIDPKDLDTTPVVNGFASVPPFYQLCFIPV
T4 sequence (P11712 whole entry): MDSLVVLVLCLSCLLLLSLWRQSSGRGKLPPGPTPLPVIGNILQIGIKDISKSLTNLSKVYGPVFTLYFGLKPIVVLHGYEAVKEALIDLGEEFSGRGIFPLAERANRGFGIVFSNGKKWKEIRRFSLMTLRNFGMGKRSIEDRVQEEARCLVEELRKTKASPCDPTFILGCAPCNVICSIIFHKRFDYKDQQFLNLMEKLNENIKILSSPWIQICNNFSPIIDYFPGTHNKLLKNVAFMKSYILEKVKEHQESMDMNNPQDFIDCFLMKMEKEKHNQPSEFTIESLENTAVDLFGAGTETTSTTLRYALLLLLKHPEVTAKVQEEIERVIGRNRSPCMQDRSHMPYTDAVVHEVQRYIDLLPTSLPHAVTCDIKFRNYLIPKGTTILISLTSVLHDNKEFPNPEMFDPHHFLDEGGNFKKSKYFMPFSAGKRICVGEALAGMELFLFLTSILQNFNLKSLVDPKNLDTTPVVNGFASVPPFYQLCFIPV

CC12CC3CC1(C)C1(C)CC3(CN)CC21C.Cl [RL-208, (3,4,8,9-tetramethyltetracyclo [4.4.0.0^3,9.0^4,8]dec-1-yl)methylamine hydrochloride]
CYP3A4 (BFC) inhibition (CYP3A4; recombinant human CYP3A4, substrate BFC): 35 ± 4%
CYP3A4 (DBF) inhibition (CYP3A4; recombinant human CYP3A4, substrate DBF): 3 ± 1%
CYP1A2 inhibition (CYP1A2): 5 ± 2%
CYP2C19 inhibition (CYP2C19): 23 ± 1%
CYP2C9 inhibition (CYP2C9): 12 ± 2%
mature BDNF protein levels (SAMR1 and SAMP8 mice; RL-208 treated mice vs control groups): significant augment
proBDNF protein levels (SAMR1 and SAMP8 mice; SP8 treated vs control): significant reduction
proBDNF protein levels (differences) (SAMR1 and SAMP8 mice; SR1 strain): not significant
microsomal stability [1]: good
pIC50 (NMDAR): ~6.00
CYP2D6 inhibition (CYP2D6): 10 ± 3%
